Tests used:
[1] = target: T1, Tyrosine-protein kinase Mer (Homo sapiens) (UniProt Q12866); test: Mer(h) Eurofins kinase panel; conditions: Compound concentration 1.0 uM
T1 sequence (whole entry): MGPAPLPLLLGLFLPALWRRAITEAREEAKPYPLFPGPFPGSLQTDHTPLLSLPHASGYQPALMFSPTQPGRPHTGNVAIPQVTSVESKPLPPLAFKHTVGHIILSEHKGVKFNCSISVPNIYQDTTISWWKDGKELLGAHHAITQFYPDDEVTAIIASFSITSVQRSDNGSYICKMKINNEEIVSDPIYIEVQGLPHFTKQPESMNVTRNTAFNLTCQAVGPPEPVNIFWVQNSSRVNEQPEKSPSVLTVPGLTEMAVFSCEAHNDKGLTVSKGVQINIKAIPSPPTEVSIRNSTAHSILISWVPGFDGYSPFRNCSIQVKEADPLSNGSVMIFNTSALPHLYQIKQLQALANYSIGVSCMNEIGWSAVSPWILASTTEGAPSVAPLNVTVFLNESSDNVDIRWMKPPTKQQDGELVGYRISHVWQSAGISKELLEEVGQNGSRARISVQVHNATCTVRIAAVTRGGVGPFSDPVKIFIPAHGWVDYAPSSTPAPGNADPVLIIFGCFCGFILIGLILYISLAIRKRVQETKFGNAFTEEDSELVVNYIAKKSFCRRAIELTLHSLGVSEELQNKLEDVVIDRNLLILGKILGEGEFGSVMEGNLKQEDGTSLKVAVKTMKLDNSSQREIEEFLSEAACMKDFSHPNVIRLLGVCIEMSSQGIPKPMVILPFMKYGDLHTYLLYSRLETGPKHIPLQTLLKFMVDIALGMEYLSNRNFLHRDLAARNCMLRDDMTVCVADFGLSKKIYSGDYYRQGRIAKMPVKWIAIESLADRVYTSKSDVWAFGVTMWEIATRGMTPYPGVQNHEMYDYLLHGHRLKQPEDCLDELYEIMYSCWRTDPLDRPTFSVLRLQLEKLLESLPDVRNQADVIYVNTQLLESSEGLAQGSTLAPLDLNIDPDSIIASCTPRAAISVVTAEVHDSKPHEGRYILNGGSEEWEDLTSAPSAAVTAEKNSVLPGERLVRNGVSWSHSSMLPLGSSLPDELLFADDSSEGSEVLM

[2] = target: cAMP-dependent protein kinase catalytic subunit alpha (Homo sapiens) (UniProt P17612); test: PKA(h) Eurofins kinase panel; conditions: Compound concentration 1.0 uM

Structure (SMILES): CCc1ccccc1C(=O)Nc1n[nH]c2c(C)c(F)c(C3C(C#N)=C(C)N(C)C(C)=C3C#N)cc12 [BAY-3827]
- % residual kinase activity [1]: 96%
- % residual kinase activity [2]: 103%

— ChEMBL document CHEMBL4507319 (2021)
